The values that follow come from patent EP0658109B1, “METALLO PORPHYRIN COMPOSITIONS” (priority 1992, dated 1994).

Where two headings read alike, the source gives them in different places. Where only a bound is given, the exact number is not on record here.

Series [1] can be described thus: MTT cell viability assay (cytotoxicity). Format: cell-based, monkey. The settings on record: monkey, cytotoxicity towards COS A6 cells cultured in the absence of FCS, read-out: LD50 (the source's name). From the text:
(§1) Ex vivo Assay of HIV-1 Polyprotein Processing. COS A6 cells were the result of stable integration of the vector HIV-gpt by transfection of COS-7 cells. This SV40-based vector consists of the HIV-1 HXB2 strain proviral genome where the gp160 sequences were replaced by the […] (gpt) gene. Following transfection, the cells were placed under selection for gpt expression by adding mycophenolic acid to the media. Surviving cells were later cloned and assayed for expression of gag p24 protein by ELISA and Western blots of culture supernatants and whole cell extracts. The cloned COS A6 cell line was maintained in DME H21 supplemented with 10% dialyzed and refiltered fetal calf serum (FCS), antibiotics (100 U/ml penicillin G, 100 µg/ml streptomycin sulfate), hypoxanthine (14 µg/ml), xanthine (250 µg/ml), and mycophenolic acid (25 µg/ml), at 37°C and 5% CO2.
(§2) MTT Cell Viability Assay. Cell survival was assessed by a quantitative colorimetric assay. The tetrazolium salt 3-(4,5-dimethylthiazol-2-yl)2,5-diphenyltetrazolium bromide (MTT) is cleaved by dehydrogenases in active mitochondria of living cells to yield a change in color from yellow to purple. To obtain the LD50 values for each compound, the concentration was determined at which the absorbance at 550-570 nm was half of that for the untreated cells. Compounds were tested in duplicate, in serial dilutions generally ranging from 10-250 µM concentrations in the presence of 0-0.1% DMSO. MTT assays were carried out in both the presence and absence of 10% FCS.
(§3) Cytotoxicity of compounds (LD50) and their ability to inhibit capsid protein processing ex vivo during 4 hour incubations (IC50) were studied. A plasmid which encodes the HIV-1 proviral genome, with the exception of the […] envelope protein, was stably introduced into the monkey cell line COS 7. Cloned progeny, COS A6 cells, constitutively release viral capsids into the media. Inhibition of polyprotein processing was determined by measuring the amount of p24 present in the viral capsid samples with an ELISA assay. The decrease in the amount of detectable p24 antigen correlated with a specific inhibition of HIV PR activity, judged by the accumulation of capsid precursor in conjunction with a disappearance of the p24 mature protein band in Western blots. The MTT stain assay was used to obtain LD50 values for all the compounds tested.
In general terms: Tetrazolium assays rely on reduction of a dye to a coloured formazan, in cell work by metabolically active cells.

A further series has as its system mice. Nature of the series: Tolerance in mice. Format: in vivo. The settings on record: doses as high as 200 mg/kg.
A further series concerns the target T1, Bovine cathepsin D (Bos taurus, UniProt P80209).
T1 construct: purchased Sigma
Put plainly: Cathepsin D inhibition, chromogenic substrate. Conditions: absence of DMSO. Format: biochemical. As for the experimental part:
(§4) Enzyme Assays. HIV-1, HIV-2, and SIV PRs were assayed against the decapeptide corresponding to the HIV-1 PR C-terminal autoprocessing site, by means of a discontinuous HPLC assay. Recombinant human renin and porcine pepsin were obtained and assayed using standard conditions. Bovine cathepsin D and its chromogenic substrate were purchased from Sigma. The enzyme was assayed by standard methods.
(§5) Stock solutions of the porphyrin derivatives (1 µ M-10mM) in 100% DMSO were used in IC50 determinations. Since many of the derivatives were insoluble in buffer alone, including the free acid forms of the carborane compounds, DMSO was used to increase solubility and allow a comparison of the binding affinity. Compounds were added to buffer solutions containing additional DMSO to give a final concentration of 5%. Control reactions contained 5% DMSO only. Enzymes were preincubated with inhibitor for 1 minute at 25°C, followed by addition of substrate to initiate the reaction. As earlier noted, assays were also carried out in the absence of DMSO, when possible. Dipotassium salts of several of the inhibitors were soluble in aqueous solution and were assayed in the absence of DMSO for K1 and IC50 determinations.

Another series deals with porcine pepsin (Sus scrofa, UniProt P00791). Put plainly: Pepsin inhibition, standard conditions. Format: biochemical. The settings on record: absence of DMSO. The protocol:
as §4, §5

Series [2] concerns the target T2, Recombinant HIV-2 protease (HIV-2 PR) (Human immunodeficiency virus type 2 subtype A, UniProt P04584).
T2 construct: Recombinant HIV-2 protease (HIV-2 PR) and SIV protease (SIV PR) were expressed and purified; made in house; host or cells: strain X90 (E. coli by own knowledge)
Nature of the series: HIV-2 protease inhibition, discontinuous HPLC assay of decapeptide cleavage. Type of series: biochemical. The protocol:
(§6) Recombinant Protein Preparation. Recombinant HIV-1 protease (HIV-1 PR) was expressed and purified from E. coli strain D1210 using the pSOD/PR179 vector. Recombinant HIV-2 protease (HIV-2 PR) and SIV protease (SIV PR) were expressed and purified from strain X90 using pTacTac vectors.
as §4, §5

In the next series the test system is COS A6 cells. Put plainly: MTT cell viability assay (cytotoxicity). Type of series: cell-based, monkey. Conditions: cytotoxicity towards COS A6 cells cultured in the absence of FCS, read-out: LD50 (the source's name).
From the text: as §1, §2, §3

For the next series, the target named is T3, Recombinant human renin (Homo sapiens, UniProt P00797).
T3 sequence (P00797 67-406): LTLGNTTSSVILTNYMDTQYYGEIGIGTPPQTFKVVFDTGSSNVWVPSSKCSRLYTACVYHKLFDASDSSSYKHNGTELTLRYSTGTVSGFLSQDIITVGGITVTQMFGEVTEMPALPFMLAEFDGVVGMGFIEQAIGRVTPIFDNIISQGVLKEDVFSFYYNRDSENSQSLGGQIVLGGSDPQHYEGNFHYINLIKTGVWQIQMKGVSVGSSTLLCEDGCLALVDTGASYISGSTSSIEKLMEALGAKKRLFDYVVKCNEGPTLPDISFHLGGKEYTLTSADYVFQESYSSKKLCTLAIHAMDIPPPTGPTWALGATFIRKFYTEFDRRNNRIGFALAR
Nature of the series: Renin inhibition, standard conditions. Type of series: biochemical. The settings on record: absence of DMSO. The protocol: as §4, §5

Series [3] has as its target T4, Recombinant HIV-1 protease (HIV-1 PR) (Human immunodeficiency virus type 1 group M subtype B, UniProt P03369).
T4 construct: Recombinant HIV-1 protease (HIV-1 PR) was expressed and purified; made in house; host or cells: E. coli strain D1210
Type of series: biochemical. As for the experimental part:
as §6, §4
Stock solutions of the porphyrin derivatives (1 µ M-10mM) in 100% DMSO were used in IC50 determinations. […] Control reactions contained 5% DMSO only. Enzymes were preincubated with inhibitor for 1 minute at 25°C, followed by addition of substrate to initiate the reaction. As earlier noted, assays were also carried out in the absence of DMSO, when possible.
Figure 1 is a Dixon plot of inventive embodiment 5 (which is a representative example of the other embodiments) in inhibition of HIV-1 protease, where purified HIV-1 protease (6 x 10^-1 mg/ml) was incubated with the inventive inhibitor in 50 mM sodium acetate buffer, pH 5.5, containing 1 mM dithiothreitol, 1 mM EDTA, and 1 M NaCl. […] The assay solutions were incubated for 30-45 minutes at 37° and enzyme activity was determined by quantitation of the hydrolysis products on HPLC.

The next series relates to C6 glioma. Nature of the series: Colony survival (cytotoxicity). Format: cell-based. The settings on record: in the presence of FCS, read-out: LD50 (the source's name).
The target in a further series is T5, SIV protease (SIV PR) (Simian immunodeficiency virus, UniProt P05896).
T5 construct: SIV protease (SIV PR) were expressed and purified from strain X90; made in house; host or cells: strain X90 (E. coli by own knowledge)
Nature of the series: SIV protease inhibition, discontinuous HPLC assay of decapeptide cleavage. Format: biochemical. Conditions: absence of DMSO. As for the experimental part: as §6, §4
as §5, with “Dipotassium salts of several of the inhibitors were soluble in aqueous solution and were assayed in the absence of DMSO for K1 and IC50 determinations.” left out

The subject of another series is V79 CHO cells. Put plainly: Colony survival (cytotoxicity). Format: cell-based. Conditions: in the presence of FCS, read-out: LD50 (the source's name).

T2 sequence (P04584 514-612 limits assumed): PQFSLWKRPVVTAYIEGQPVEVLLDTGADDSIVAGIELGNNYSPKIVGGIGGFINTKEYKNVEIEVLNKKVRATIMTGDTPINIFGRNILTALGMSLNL
Sequence of porcine pepsin (P00791 60-385): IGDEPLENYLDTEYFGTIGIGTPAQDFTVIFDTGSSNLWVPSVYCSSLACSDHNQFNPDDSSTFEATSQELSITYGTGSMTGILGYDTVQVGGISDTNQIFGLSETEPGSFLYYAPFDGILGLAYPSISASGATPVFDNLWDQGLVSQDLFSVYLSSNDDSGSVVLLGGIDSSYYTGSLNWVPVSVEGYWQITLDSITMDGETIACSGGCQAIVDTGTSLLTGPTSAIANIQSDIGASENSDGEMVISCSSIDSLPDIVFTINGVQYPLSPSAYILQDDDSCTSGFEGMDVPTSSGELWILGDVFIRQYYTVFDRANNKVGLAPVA
T5 sequence (P05896 501-596): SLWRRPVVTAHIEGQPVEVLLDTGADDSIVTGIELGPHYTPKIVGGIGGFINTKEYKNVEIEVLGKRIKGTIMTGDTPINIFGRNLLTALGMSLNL
T1 sequence (P80209 45-390): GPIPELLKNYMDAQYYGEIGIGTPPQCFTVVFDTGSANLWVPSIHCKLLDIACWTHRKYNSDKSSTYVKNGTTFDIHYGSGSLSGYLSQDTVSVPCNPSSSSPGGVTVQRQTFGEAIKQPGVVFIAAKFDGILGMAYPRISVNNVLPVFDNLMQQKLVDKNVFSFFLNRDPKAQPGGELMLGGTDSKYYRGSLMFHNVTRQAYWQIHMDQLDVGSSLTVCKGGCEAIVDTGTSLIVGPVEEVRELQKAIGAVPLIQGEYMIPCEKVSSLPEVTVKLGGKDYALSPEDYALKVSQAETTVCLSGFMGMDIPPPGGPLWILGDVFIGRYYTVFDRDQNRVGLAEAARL

In the case of `CC1=C(C(COC(=O)c2ccc3ccccc3c2)OC(=O)c2ccc3ccccc3c2)c2cc3nc(cc4[nH]c(cc5[nH]c(cc1n2)c(C)c5CCC(=O)O)c(CCC(=O)O)c4C)C(C(COC(=O)c1ccc2ccccc2c1)OC(=O)c1ccc2ccccc2c1)=C3C` (centres unmarked) [Comparative Embodiment 11], in series [1], the CC50 was 250 µM.

Turning to “tetra-carborane carboxylate ester of 2,4-Di(α,β-dihydroxyethyl)deuteroporphyrin (IX) [Inventive Embodiment 1]”, the “concentrations readily prepared in water (water solubility)” value was 100 to 200 mg/mL. Moreover, the “tolerance in mice (morbidity or mortality)” value with mice is on record as “no apparent signs of morbidity or mortality”. For the same compound, on Bovine cathepsin D, half-maximal inhibition (IC50) was put at 10 µM. Besides, half-maximal inhibition at porcine pepsin (IC50) required 4 µM. The concentration for half-maximal inhibition (IC50) (as a rule, the concentration that gives 50% inhibition) in [2] (absence of DMSO, dipotassium salts in aqueous solution, read-out: IC50 HIV-2 PR) came out at 230 nM. Besides, the half-maximal inhibitory concentration (IC50) in series [2] (in the presence of 5% DMSO, read-out: IC50 in vitro HIV-2) was found to be 700 nM. Also, the concentration for half-maximal inhibition (IC50) in series [2] (matches the series without DMSO, read-out: IC50 HIV-2 protease) is 230 nM. Moreover, the CC50 in the series on COS A6 cells stood at 25 µM. Also, the IC50 at Recombinant human renin amounted to 3000 nM. In addition, the concentration for half-maximal inhibition (IC50) in [3] (absence of DMSO, dipotassium salts in aqueous solution, read-out: IC50 HIV-1 PR) came to 50 nM. Further, in series [3] (from Table 4, absence of DMSO), the “fold more effective for HIV-1 PR than for HIV-2 and SIV PRs” value is given as “approximately 5 fold”. The “fold more inhibitory for HIV-1 PR compared to cellular aspartyl proteases” value in series [3] (from Table 4, absence of DMSO, listed as Inventive embodiment 1) is “at least 60 fold”. The “fold more inhibitory for HIV-1 PR compared to cellular aspartyl proteases” value in series [3] (from Table 4, absence of DMSO, listed as inventive embodiment 1) was “at least a sixty-fold”. For the same compound, the concentration for half-maximal inhibition (IC50) in series [3] (in the presence of 5% DMSO, read-out: IC50 in vitro HIV-1) worked out at 185 nM. For the same compound, in series [3] (incubation with 0.1% FCS, 50 nM inhibitor), the “decrease of inhibition of HIV-1 PR by fetal calf serum” value is “more than 50%”. Further, the half-inhibitory concentration (IC50) in [3] (matches the series without DMSO, read-out: IC50 HIV-1 protease) was found to be 50 nM. The CC50 in the series with C6 glioma lay within 100 to 125 µM. On SIV protease (SIV PR), this compound had an IC50 of 250 nM. Moreover, the CC50 in the series with V79 CHO cells is at least 150 µM.

`CC1=C(C(O)CO)c2cc3nc(cc4[nH]c(cc5[nH]c(cc1n2)c(C)c5CCC(=O)O)c(CCC(=O)O)c4C)C(C(O)CO)=C3C` (centres unmarked) [Comparative Embodiment 12]: the CC50 in series [1] is 250 µM.

For the compound `CC1=C(C(COC(=O)c2ccccc2)OC(=O)c2ccccc2)c2cc3nc(cc4[nH]c(cc5[nH]c(cc1n2)c(C)c5CCC(=O)O)c(CCC(=O)O)c4C)C(C(COC(=O)c1ccccc1)OC(=O)c1ccccc1)=C3C` (centres unmarked) [Comparative Embodiment 10], the CC50 in [1] amounted to 250 µM.

Turning to `CC1=C(C(COC(=O)c2ccc(N(C)C)cc2)OC(=O)c2ccc(N(C)C)cc2)c2cc3nc(cc4[nH]c(cc5[nH]c(cc1n2)c(C)c5CCC(=O)O)c(CCC(=O)O)c4C)C(C(COC(=O)c1ccc(N(C)C)cc1)OC(=O)c1ccc(N(C)C)cc1)=C3C` (centres unmarked) [Comparative Embodiment 9], the CC50 in [1] is over 250 µM.
